Several values for one entry are separate records, joined by “and”; a condition that tells them apart may be missing. Equal entries are not always repeated.

Holding throughout (type): in vivo
In assay [1] the test system is larvae of the mustard beetle (Phaedon cochleariae). The assay can be described thus: Phaedon-Larvae Test. The note with it: cabbage leaf dip. Here is the method: (§1) To produce a suitable preparation of active compound, 1 part by weight of active compound is mixed with the stated amounts of solvent and emulsifier, and the concentrate is diluted with emulsifier containing water to the desired concentration.
Cabbage leaves (Brassica oleracea) are treated by being dipped into the preparation of active compound of the desired concentration and are populated with larvae of the mustard beetle (Phaedon cochleariae) while the leaves are still moist. After the desired period of time, the kill in percent is determined. 100% means that all beetle larvae have been killed; 0% means that none of the beetle larvae has been killed. The kill rates determined are inserted into Colby's formula (see sheet 34).

Assay [2] has as its system caterpillars of the diamondback moth (Plutella xylostella, sensitive strain). The assay can be described thus: Plutella Test, sensitive strain. The settings on record: for Kill rate [%] after 6 days: 20 ppm. As to the method:
as §1
Cabbage leaves (Brassica oleracea) are treated by being dipped into the preparation of active compound of the desired concentration and are populated with caterpillars of the diamondback moth (Plutella xylostella, sensitive strain) while the leaves are still moist. After the desired period of time, the kill in percent is determined. 100% means that all caterpillars have been killed; 0% means that none of the caterpillars has been killed. The kill rates determined are inserted into Colby's formula (see sheet 34).

Assay [3] deals with caterpillars of the army worm (Spodoptera frugiperda). The experiment in a line: Spodoptera frugiperda Test. Here is the method:
as §1
Cabbage leaves (Brassica oleracea) are treated by being dipped into the preparation of active compound of the desired concentration and are populated with caterpillars of the army worm (Spodoptera frugiperda) while the leaves are still moist. After the desired period of time, the kill in percent is determined. 100% means that all caterpillars have been killed; 0% means that none of the caterpillars has been killed. The kill rates determined are inserted into Colby's formula (see sheet 34).

Assay [4] deals with green peach aphid (Myzus persicae). The assay can be described thus: Myzus Test. Here is the method: as §1
Cabbage leaves (Brassica oleracea), which are heavily infested by the green peach aphid (Myzus persicae) are treated by being dipped into the preparation of active compound of the desired concentration. After the desired period of time, the kill in % is determined. 100% means that all aphids have been killed; 0% means that none of the aphids has been killed. The kill rates determined are inserted into Colby's formula (see sheet 1).

For `Cc1c(F)c(F)c(COC(=O)[C@@H]2[C@H](/C=C(\Cl)C(F)(F)F)C2(C)C)c(F)c1F` (racemic) [tefluthrin], the “Kill rate [%] after 3 days” value in assay [1] (4 ppm) came to 75%; in assay [2] (0.16 ppm) it was 20%; in assay [3] (0.8 ppm) it was 40%. For the same molecule, in assay [4] (4 ppm), the “Kill rate [%] after 1 day” value worked out at 0%.
Regarding `O=S(=O)(CCC(F)=C(F)F)c1ncc(Cl)s1` [(IC)], the “Kill rate [%] after 3 days” value in assay [1] (500 ppm) is 0%; in assay [2] (500 ppm, cabbage leaf dip), 0% and 5%; in assay [3] (500 ppm, cabbage leaf dip), 0%. Further, the “Kill rate [%] after 6 days” value in assay [3] (500 ppm) turned out to be 20%; in assay [4] (100 ppm), 0%. Besides, the “Kill rate [%] after 1 day” value in assay [4] (100 ppm, cabbage leaf dip) is 0%.
In the case of `CCOC(=O)OC1=C(c2cc(C)ccc2C)C(=O)NC12CCC(OC)CC2` (stereo not drawn) [(IIA), carboxylic acid, 3-(2,5-dimethylphenyl)-8-methoxy-2-oxo-1-azaspiro[4.5]dec-3-en-4-yl ethyl ester, (9Cl)], the “Kill rate [%] after 3 days” value in assay [2] (4 ppm) was 95%. For the same molecule, the results for the “Kill rate [%] after 6 days” value in assay [3] (100 ppm) and in assay [4] (4 ppm) were 30% and 55%, respectively.
With `CNC(=O)O/N=C/C(C)(C)SC` [aldicarb], the “Kill rate [%] after 3 days” value in assay [1] (20 ppm) is given as 35%. Also, the “Kill rate [%] after 6 days” value in assay [2] is recorded as 0%.
With `CN/C(=N\[N+](=O)[O-])NCc1cnc(Cl)s1` [clothianidin], the figures for the “Kill rate [%] after 3 days” value in assay [1] (4 ppm) and in assay [3] (4 ppm) were 15% and 85%, respectively.
For the molecule `N#Cc1nn(-c2c(Cl)cc(C(F)(F)F)cc2Cl)c(N)c1[S+]([O-])C(F)(F)F` (stereo not drawn) [fipronil], the “Kill rate [%] after 6 days” value in assay [3] (0.8 ppm) was determined as 0%.
Take `O=[N+]([O-])NC1=NCCN1Cc1ccc(Cl)nc1` [imidacloprid]: in assay [1] (20 ppm), the “Kill rate [%] after 3 days” value was 45%. Further, the “Kill rate [%] after 6 days” value in assay [2] was 5%.
For `CCOP(=S)(Oc1cnc(C(C)(C)C)nc1)OC(C)C` (stereo not drawn) [tebupirimfos], the “Kill rate [%] after 3 days” value in assay [2] (0.8 ppm) worked out at 0%. Moreover, the figures for the “Kill rate [%] after 6 days” value in assay [3] (0.8 ppm) and in assay [4] (20 ppm) were 0% and 35%, respectively.
Turning to spinosad, the “Kill rate [%] after 3 days” value in assay [3] (0.16 ppm) stood at 60%.

These data come from US8815921B2, “Active substance combination based on trifluorobutinyl compounds and exhibiting nematicidal and insecticidal properties” (priority 2003, dated 2014).
